From patent US20100240642A1, “1H-Indole-2-Carboxylic Acid Derivatives Useful As PPAR Modulators” (SMITHKLINE BEECHAM CORPORATION, priority 2006, published 2010)
Read-outs that look alike come from different tables or passages of the source.

Biological target: T1, hPPARγ receptor (Homo sapiens, UniProt P37231)
T1 construct: expressed in transfected cells; host or cells: CV-1 (African Green Monkey kidney, ATCC CCL-70)
T1 sequence (P37231 172-475 isoform P37231-2): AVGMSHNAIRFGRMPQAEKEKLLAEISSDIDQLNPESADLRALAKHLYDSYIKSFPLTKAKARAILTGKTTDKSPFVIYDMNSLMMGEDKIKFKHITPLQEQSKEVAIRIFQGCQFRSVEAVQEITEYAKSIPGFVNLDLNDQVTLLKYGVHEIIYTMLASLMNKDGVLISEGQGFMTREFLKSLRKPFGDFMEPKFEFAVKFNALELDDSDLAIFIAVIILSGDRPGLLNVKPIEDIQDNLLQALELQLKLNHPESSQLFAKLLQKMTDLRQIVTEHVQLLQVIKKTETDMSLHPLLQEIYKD
Assay: PPARγ Cell-based luciferase assay
Description: Plasmids—PCR primers containing Kpnl and BamHI restriction sites were used to amplify PPARγ ligand binding domain (LBD) fragment (172-475) from a full-length human clone. The LBD fragment was ligated into the multiple cloning site of pFA-CMV (Stratagene). The resulting construct (pFA-CMV-GAL4-hPPARγLBD carried a fusion of the LBD with the yeast-derived GAL4 DNA-binding domain under the control of the CMV immediate early promoter. Reporter construct UAStkLuc carries a single 17 bp (CGGAGTACTGTCCTCCG) upstream activating sequence (UAS), the tk minimal promoter, and the firefly luciferase gene. The integrity of each construct was confirmed by diagnostic restriction digestion and by sequencing. Plasmid DNA was prepared using Qiagen Maxi-Prep kits.
PPARγ Cell-based luciferase assay—African Green Monkey kidney cell line CV-1 (ATCC CCL-70) was maintained in Dulbecco's Modified Eagle's Medium (D-MEM) containing 10% fetal bovine serum, 2 mM glutamine, and 1% penicillin/streptomycin (pen/strep). In preparation for luciferase assays, CV-1 cells were grown in charcoal-stripped cell medium containing D-MEM/F-12 medium supplemented with 5% or 3% dextran-treated/charcoal-stripped (CS) fetal bovine serum, 2 mM glutamine, with or without 1% pen/strep, as described below. CS fetal bovine serum was purchased from Hyclone; all other cell culture reagents were from Gibco.
The luciferase protocol is a multi-day procedure. On day 1, confluent cells in maintenance medium were subcultured 1:10 into T-175 cm^2 flasks containing 50 mL of 3% CS medium with pen/strep. These flasks were allowed to incubate at 5% CO2 and 37° C. for 72 hours.
Cells were harvested by trypsinization and then transfected using FuGENE (Roche) according to the manufacturer's specifications. Briefly, each transfection contained 0.55 μg pFA_CMV_GAL4_hPPARγ_LBD plasmid, 10.9 μg UAStkLUC, and 24 μg pBluescript (carrier DNA). Plasmid DNA was mixed with FuGENE in OptiMEM-1 medium and incubated for 30 min at room temperature. During this incubation, cells were harvested into 3% CS medium without pen-strep and dispensed at 14 million cells per T-175 cm^2 flask. Transfection mixes were added to the flasks and incubated overnight at 5% CO2 and 37° C.
Transfected cells were added to 384-well plates containing pharmacological agents. Rosiglitazone standard was reconstituted in DMSO at 1 mM. For 11-point dose-response experiments, the compounds were 3-fold serially diluted in DMSO and then stamped to 384-well assay plates (NUNC, catalog #164564) at 0.5 μL/well using a Beckman FX. DMSO and agonist control compound Rosiglitazone (1 mM) were each stamped at 0.5 μL/well to columns 23 and 24, respectively, of the 384-well plates. Transfected cells were harvested in 5% CS medium with pen/strep and dispensed at 10,000 cells/well (50 μL) onto the prepared 384-well compound plates using a Titertek Multidrop. Following overnight incubation at 5% CO2 and 37° C., Steady-Glo reagent (Promega) was added to the assay plates using a Multidrop. Plates were incubated for 10 min to ensure complete cell lysis and read in a ViewLux (PerkinElmer). […] Partial agonism is defined here as 20-80% activation (relative to full agonist rosiglitazone) at concentrations of 10^−6 M or less.

[1] = CV-1 cells transfected with GAL4-hPPARγ LBD and UAStkLuc, at concentrations of 10^−6 M or less, read-out: agonism of the hPPARγ receptor (activation relative to full agonist rosiglitazone)

Row | Compound | Emax [1] [%] | Emax (CV-1, read-out: agonism of the hPPARγ receptor (activation relative to full agonist rosiglitazone)) [%]
1 | CC(=O)c1ccc(-c2c(C(=O)O)n(Cc3cc(-c4ccc(C(=O)O)cc4)ccc3C)c3ccccc23)cc1 [Example 14, 3-(4-acetylphenyl)-1-[(4′-carboxy-4-methyl-3-biphenylyl)methyl]-1H-indole-2-carboxylic acid] | 20 to 80 | –
2 | COc1ccc(-c2c(C(=O)O)n(Cc3cccc(-c4ccc(O)cc4)c3)c3ccccc23)cn1 [Example 16, 1-[(4′-hydroxy-3-biphenylyl)methyl]-3-[6-(methyloxy)-3-pyridinyl]-1H-indole-2-carboxylic acid] | 20 to 80 | –
3 | COCCOc1cc(Cn2c(C(=O)O)c(-c3ccc(C(C)(C)C)cc3)c3ccccc32)cc(OCc2ccccc2)c1 [Example 67, 3-[4-(1,1-dimethylethyl)phenyl]-1-({3-{[2-(methyloxy)ethyl]oxy}-5-[(phenylmethyl)oxy]phenyl}methyl)-1H-indole-2-carboxylic acid] | 20 to 80 | –
4 | CC(C)(C)c1ccc(-c2c(C(=O)O)n(Cc3cccc(-c4ccc(C(=O)O)cc4)c3)c3ccccc23)cc1 [Example 7, 1-[(4′-carboxy-3-biphenylyl)methyl]-3-[4-(1,1-dimethylethyl)phenyl]-1H-indole-2-carboxylic acid] | 20 to 80 | –
5 | COCCOc1cc(Cn2c(C(=O)O)c(-c3ccc(C(C)(C)C)cc3)c3ccccc32)cc(OC(=O)N(C)C)c1 [Example 49, 1-[(3-{[(dimethylamino)carbonyl]oxy}-5-{[2-(methyloxy)ethyl]oxy}phenyl)methyl]-3-[4-(1,1-dimethylethyl)phenyl]-1H-indole-2-carboxylic acid] | – | 20 to 80
6 | CC(C)(C)c1ccc(-c2c(C(=O)O)n(Cc3cc(O)cc(-c4ccc(C(=O)O)cc4)c3)c3ccccc23)cc1 [Example 22, 1-[(4′-carboxy-5-hydroxy-3-biphenylyl)methyl]-3-[4-(1,1-dimethylethyl)phenyl]-1H-indole-2-carboxylic acid] | 20 to 80 | –
7 | CC(C)(C)c1ccc(-c2c(C(=O)O)n(Cc3cccc(N4CCN(S(N)(=O)=O)CC4)c3)c3ccccc23)cc1 [Example 39, 1-({3-[4-(aminosulfonyl)-1-piperazinyl]phenyl}methyl)-3-[4-(1,1-dimethylethyl)phenyl]-1H-indole-2-carboxylic acid] | 20 to 80 | –
8 | COCCOCCCOc1cc(Cn2c(C(=O)O)c(Cc3cccc(C(F)(F)F)c3)c3ccccc32)cc(OCC2CC2)c1 [Example 55, 1-({3-[(cyclopropylmethyl)oxy]-5-[(3-{[2-(methyloxy)ethyl]oxy}propyl)oxy]phenyl}methyl)-3-{[3-(trifluoromethyl)phenyl]methyl}-1H-indole-2-carboxylic acid] | 20 to 80 | –
9 | Cc1ccc(-c2ccc(O)cc2)cc1Cn1c(C(=O)O)c(-c2ccc(C(C)(C)C)cc2)c2ccccc21 [Example 10, 3-[4-(1,1-dimethylethyl)phenyl]-1-[(4′-hydroxy-4-methyl-3-biphenylyl)methyl]-1H-indole-2-carboxylic acid] | 20 to 80 | –
10 | Cc1ccc(-c2ccc(OC(C)(C)C(=O)O)cc2)cc1Cn1c(C(=O)O)c(-c2ccc(C(C)(C)C)cc2)c2ccccc21 [Example 12, 1-({4′-[(1-carboxy-1-methylethyl)oxy]-4-methyl-3-biphenylyl}methyl)-3-[4-(1,1-dimethylethyl)phenyl]-1H-indole-2-carboxylic acid] | 20 to 80 | –
11 | COCCOc1cc(Cn2c(C(=O)O)c(Oc3ccc(C(C)(C)C)cc3)c3ccccc32)cc(OCCOC)c1 [Example 61, 1-[(3,5-bis{[2-(methyloxy)ethyl]oxy}phenyl)methyl]-3-{[4-(1,1-dimethylethyl)phenyl]oxy}-1H-indole-2-carboxylic acid] | 20 to 80 | –
12 | O=C(O)c1c(Cc2cccc(C(F)(F)F)c2)c2ccccc2n1Cc1cc(OCCn2cccc2)cc(OCC2CC2)c1 [Example 54, 1-[(3-[(cyclopropylmethyl)oxy]-5-{[2-(1H-pyrrol-1-yl)ethyl]oxy}phenyl)methyl]-3-{[3-(trifluoromethyl)phenyl]methyl}-1H-indole-2-carboxylic acid] | 20 to 80 | –
13 | CC(C)OC(=O)N1CCN(c2cccc(Cn3c(C(=O)O)c(-c4ccc(C(C)(C)C)cc4)c4ccccc43)c2)CC1 [Example 47, 3-[4-(1,1-dimethylethyl)phenyl]-1-{[3-(4-{[(1-methylethyl)oxy]carbonyl}-1-piperazinyl)phenyl]methyl}-1H-indole-2-carboxylic acid] | 20 to 80 | –
14 | COc1ccc(-c2ccc(C)c(Cn3c(C(=O)O)c(-c4ccc(C(C)(C)C)cc4)c4ccccc43)c2)cc1 [Example 13, 3-[4-(1,1-dimethylethyl)phenyl]-1-{[4-methyl-4′-(methyloxy)-3-biphenylyl]methyl}-1H-indole-2-carboxylic acid] | 20 to 80 | –
15 | CC(=O)N1CCN(c2cccc(Cn3c(C(=O)O)c(-c4ccc(C(C)(C)C)cc4)c4ccccc43)c2)CC1 [Example 35, 1-{[3-(4-acetyl-1-piperazinyl)phenyl]methyl}-3-[4-(1,1-dimethylethyl)phenyl]-1H-indole-2-carboxylic acid] | 20 to 80 | –
16 | CC(C)(C)c1ccc(-c2c(C(=O)O)n(Cc3cccc(-c4ccc(O)cc4)c3)c3ccccc23)cc1 [Example 9, 3-[4-(1,1-dimethylethyl)phenyl]-1-[(4′-hydroxy-3-biphenylyl)methyl]-1H-indole-2-carboxylic acid] | 20 to 80 | –
17 | COCCOc1cc(Cn2c(C(=O)O)c(Cc3cccc(C(F)(F)F)c3)c3ccccc32)cc(OCC2CC2)c1 [Example 56, 1-[(3-[(cyclopropylmethyl)oxy]-5-{[2-(methyloxy)ethyl]oxy}phenyl)methyl]-3-{[3-(trifluoromethyl)phenyl]methyl}-1H-indole-2-carboxylic acid] | 20 to 80 | –
18 | CC(C)(C)c1ccc(-c2c(C(=O)O)n(Cc3cc(OCc4ccccc4)cc(-c4ccc(C(=O)O)cc4)c3)c3ccccc23)cc1 [Example 19, 1-({4′-carboxy-5-[(phenylmethyl)oxy]-3-biphenylyl}methyl)-3-[4-(1,1-dimethylethyl)phenyl]-1H-indole-2-carboxylic acid] | 20 to 80 | –
19 | Cc1ccc(-c2ccc(C(=O)NCCc3cccs3)cc2)cc1Cn1c(C(=O)O)c(-c2ccc(C(C)(C)C)cc2)c2ccccc21 [Example 33, 3-[4-(1,1-dimethylethyl)phenyl]-1-{[4-methyl-4′-({[2-(2-thienyl)ethyl]amino}carbonyl)-3-biphenylyl]methyl}-1H-indole-2-carboxylic acid] | 20 to 80 | –
20 | COCCOc1cc(Cn2c(C(=O)O)c(Cc3cccc(C(F)(F)F)c3)c3ccccc32)cc(OCCOC)c1 [Example 58, 1-[(3,5-bis{[2-(methyloxy)ethyl]oxy}phenyl)methyl]-3-{[3-(trifluoromethyl)phenyl]methyl}-1H-indole-2-carboxylic acid] | 20 to 80 | –
21 | COCCOc1cc(Cn2c(C(=O)O)c(-c3ccc(C(C)(C)C)cc3)c3ccccc32)cc(C(F)(F)F)c1 [Example 64, 3-[4-(1,1-dimethylethyl)phenyl]-1-{[3-{[2-(methyloxy)ethyl]oxy}-5-(trifluoromethyl)phenyl]methyl}-1H-indole-2-carboxylic acid] | 20 to 80 | –
22 | CC(C)(C)c1ccc(-c2c(C(=O)O)n(Cc3cc(OCC4CC4)cc(C(F)(F)F)c3)c3ccccc23)cc1 [Example 65, 1-{[3-[(cyclopropylmethyl)oxy]-5-(trifluoromethyl)phenyl]methyl}-3-[4-(1,1-dimethylethyl)phenyl]-1H-indole-2-carboxylic acid] | 20 to 80 | –
